Reference: US20240317828A1, “T CELL ACTIVATING IMMUNOTHERAPEUTIC FOR TREATMENT OF MUCIN 1 PROTEIN EXPRESSING HUMAN CANCERS” (PDS BIOTECHNOLOGY CORPORATION, priority 2022, published 2024)
Where no end group is shown, it is not given here.

Tests used:
[1] = tested on: MUC1 antigen-specific T cells; assay: ELISPOT of MUC1 antigen-specific T cells in spleens of vaccinated HLA-A2 transgenic mice; assay type: in vivo, HLA-A2 expressing transgenic mice (AAD mice); details: for antigen strength (immune response): lipidated peptide in the micellar peptide antigen component of the R-DOTAP vaccine; for antigen delivery to dendritic cells and immune cell activation: FIGS. 4 and 5, anionic SSEEDE N-terminal extension, formulated with R-DOTAP nanoparticles and micellar mixture of six lipidated peptides
Procedure: As illustrated in FIG. 4 HLA-A2 specific CD8 T cell responses to formulations including peptide antigen SSEEDE-C1A (SEQ ID NO:18) and SSEEDE-C2A (SEQ ID NO:19) formulated with R-DOTAP nanoparticles and a micellar mixture with six lipidated peptide agonist antigens, pC3A: (SEQ ID NO:15), pV1A: (SEQ ID NO:2), pV2A: (SEQ ID NO:3), pC5A: (SEQ ID NO:4), pC6A: (SEQ ID NO:5), pP93L: (SEQ ID NO: 16) were evaluated. […] The efficacy of these vaccine formulations in generating T cell responses was measured by dosing HLA-A2 expressing transgenic mice (AAD mice) with two 0.1 ml injections of the vaccine delivered subcutaneously on day 0 and day 7. Negative control groups mice were vaccinated with MUC1 peptides formulated in sucrose buffer. Immune responses specific to vaccine formulation were measured in an ELISPOT assay by enumerating MUC1 antigen-specific T cells, in triplicate wells, in the spleens obtained from vaccinated mice. Each bar in the graph represents the mean SFU per 250,000 splenocytes for a group of vaccinated mice. Error bars represent mean±SEM for five mice in each group. For identifying MUC1-specific T cells, splenocytes were stimulated with peptide sequences C1A (SEQ ID NO:9: YLAIVYLIAL), C2A (SEQ ID NO:10), V1A (SEQ ID NO:13), V2A (SEQ ID NO:14:) C3A (SEQ ID NO:12) and p93L (SEQ ID NO:11)
As shown in FIG. 5 HLA-A2 specific CD8 T cell responses to formulations including peptide antigen SSEEDE-C1A (SEQ ID NO:9) and SSEEDE-C2A ([…]) formulated with R-DOTAP nanoparticles and a micellar mixture with six lipidated peptide agonist antigens, pC3A: (SEQ ID NO:15), pV1A: (SEQ ID NO:2), pV2A: (SEQ ID NO:3), pC5A: (SEQ ID NO:4), pC6A: (SEQ ID NO:5), pP93L: (SEQ ID NO:16) were assessed. […] The efficacy of these vaccine formulations in generating T cell responses was measured by dosing HLA-A2 expressing transgenic mice (AAD mice) with two 0.1 ml injections of the vaccine delivered subcutaneously on day 0 and day 7. Negative control groups mice were vaccinated with MUC1 peptides formulated in sucrose buffer. Immune responses specific to vaccine formulation were measured in an ELISPOT assay by enumerating MUC1 antigen-specific T cells, in triplicate wells, in the spleens obtained from vaccinated mice. Each bar in the graph represents the mean SFU per 250,000 splenocytes for a group of vaccinated mice. Error bars represent mean±SEM for five mice in each group. For identifying MUC1-specific T cells, splenocytes were stimulated with peptide sequences C1A (SEQ ID NO:9: YLAIVYLIAL), C2A (SEQ ID NO:10), V1A (SEQ ID NO:13), V2A (SEQ ID NO:14) C3A (SEQ ID NO:12) and p93L (SEQ ID NO:11).
Control peptide antigen formulations were prepared with 0.5 ml of Montanide plus CpG, or “NCI adjuvant” formulation consisting of 50 μg/ml GM-CSF, 20 μg/ml IL-12, 0.8 mg/ml HBV core (128-140) peptide in incomplete Freund's adjuvant. The efficacy of these vaccine formulations in generating T cell responses was measured by dosing HLA-A2 expressing transgenic mice (AAD mice) with two 0.1 ml injections of the vaccine delivered subcutaneously on day 0 and day 7. Control group mice were vaccinated with MUC1 peptides formulated in sucrose buffer alone. Immune responses specific to vaccine formulation were measured in an ELISPOT assay by enumerating MUC1 antigen-specific T cells, in triplicate wells, in the spleens obtained from vaccinated mice. Each data point in the graph represents the mean SFU per 250,000 splenocytes in vaccinated mice. Error bars represent mean±SEM for five mice in each group. For identifying MUC1-specific T cells, splenocytes were stimulated with peptide sequences C1A (SEQ ID NO:9: YLAIVYLIAL).
Control peptide antigen formulations were prepared with 0.5 ml of Montanide plus CpG, or “NCI adjuvant” formulation consisting of 50 μg/ml GM-CSF, 20 μg/ml IL-12, 0.8 mg/ml HBV core (128-140) peptide in incomplete Freund's adjuvant. […]

[2] = tested on: HLA-A2, A3, A11 and A24; assay: MHC-binding specificity of MUC1 peptide antigens (HLA binding / HLA affinity); parameters: species or system human; details: agonist sequence; HLA allele the peptide binds; listed as VIA
Source text: Within the human mucin 1 oncoprotein multiple high affinity MHC-binding peptide antigens specific for HLA-A2, A3, A11 and A24 have been identified (Table 1). MHC-binding peptide antigens specific for HLA-A2 have been identified: YLAIVYLIAL (SEQ ID NO:9, C1A), YLIALAVCQV (SEQ ID NO:10, C2A), YLAPPAHGV (SEQ ID NO:13, VIA) and YLDTRPAPV (SEQ ID NO:14, V2A).

[3] = Aqueous solubility of peptide antigens; details: unmodified hydrophobic agonist peptides
[4] = FIG. 8, long peptide mixed with R-DOTAP

With “KSS-YLAPPAHGV (not fully specified; lipidated; SITE 1 Epsilon-palmitoyl modified residue) [pV1A, lipidated MUC1 agonist peptide]” the “antigen strength (immune response)” value ([1]; FIGS. 3 and 7) was “strong antigens”.

For “YLAPPAHGV (not fully specified) [V1A, MUC1 agonist peptide antigen]”, the “antigen strength (immune response)” value ([1]; FIGS. 3 and 7) was “strong antigens” and the “HLA Binding” value [2] was “HLA-A2”.

For “SSEEDE-YLIALAVCQV (SSEEDEYLIALAVCQV) [SSEEDE-C2A, C2A with cleavable anionic N-terminal extension SSEEDE]”, the “antigen delivery to dendritic cells and immune cell activation” value [1] was “effective delivery”.

For “YLAIVYLIALAVCQVRRKNYGQLDIFPARDKYHPMSEYAL [YL40]”, the “antigen specific responses to antigens C1A and C2A” value ([1]; FIG. 6, long peptide with lipidated peptide micelles and 3 mg R-DOTAP in 1 ml) was “strong antigen specific responses”, the “C1A response (activity)” value [1, 4] was “induces a significant C1A response” and the “C1A specific T-cell responses” value ([1]; FIGS. 6 and 7, long peptide delivered with R-DOTAP nanoparticles) was “high level detection”.

In the case of YLAIVYLIAL [C1A], the “C1A-specific T cell response (immunoactivity)” value ([1]; FIG. 1, peptide inserted into lipid bilayer of R-DOTAP nanoparticle, two 0.1 ml s.c. injections day 0 and 7, splenocytes stimulated with C1A) is reported as “effective immunoactivity”, the immune response ([1]; FIG. 8, short peptides encapsulated (incorporated into the R-DOTAP bilayer)) is reported as “did generate a significant response” and the immune response ([1]; FIG. 8, short peptides mixed with R-DOTAP) is reported as “did not generate a significant response”. The “immune response (HLA-A2 specific CD8 T cell)” value ([1]; FIGS. 3 and 7, peptides inserted into R-DOTAP nanoparticle lipid bilayer, with micellar lipidated V1A/V2A, 3 mg R-DOTAP per ml) was “strong immune responses” and the “generation of immune responses” value ([1]; peptide included in antigen mixtures mixed/formulated with R-DOTAP nanoparticles (not inserted in bilayer)) was “ordinarily inactive”.

For “SSEEDE-YLAIVYLIAL (SSEEDEYLAIVYLIAL) [SSEEDE-C1A, C1A with cleavable anionic N-terminal extension SSEEDE]”, the “antigen delivery to dendritic cells and immune cell activation” value [1] was “effective delivery”.

With “YLIALAVCQVRRKNYGQLDIFPARDKYHPMSEYAL- [YL35]” the C2A response [1, 4] was “did not generate a significant C2A response”.

With “KSS-YLDTRPAPV (not fully specified; lipidated; SITE 1 Epsilon-palmitoyl modified residue) [pV2A, lipidated MUC1 agonist peptide]” the “antigen strength (immune response)” value ([1]; FIGS. 3 and 7) was “strong antigens”.

For YLIALAVCQV [C2A, YLIALAVCQV], the aqueous solubility [3] was “limited aqueous solubility”.

With “YLDTRPAPV (not fully specified) [V2A, MUC1 agonist peptide antigen]” the “antigen strength (immune response)” value ([1]; FIGS. 3 and 7) was “strong antigens”.
